Tested on: Dermatophagoides pteronyssinus
Assay: Efficacy against mites (ticking in plastic dish, rated under a stereomicroscope)
Format: in vivo
Settings: 0.4 ml applied to ticking; mixed population; rated after 2 hours, 1, 3 and 7 days; sum of three experimental units after end of experiment; control isopropanol/water = 9.0
Description: A mixed population of the species Dermatophagoides pteronyssinus is used.
The upper rim of a plastic dish (Ø 7 cm, height 3 cm) is provided with glue and then covered with a piece of ticking of the same diameter. A spatula-tip full from a culture dish containing mites and feed (ground Tetramin) is placed on the ticking.
The dish is then placed on an inverted Petri dish in a plastic container (33×22 cm, height 6.5 cm), containing saturated sodium chloride solution, and the container is closed with a lid.
The next day, 0.4 ml of the composition of the invention is applied to the material.
The set-up is illuminated by daylight, the temperature is 24-26° C., and the relative atmospheric humidity within the closed plastic container is approximately 75%.
After 2 hours, 1, 3, and 7 days the state of the mites in comparison with a control treated only with isopropanol/water (1:1) is rated under a stereomicroscope (3=numerous mites, 0=no mites). Direct counting is impossible since dead animals are difficult to see.
If required (control, ineffective products), more feed is added.
Three experimental units are set up for each experiment, and after the end of the experiment the sum of the scores is recorded.

For `CCCCCCCCCCCCOS(=O)(=O)[O-].[Na+]` [1.0% Na lauryl sulphate, Na lauryl sulphate], the “sum of the scores of the state of the mites (0 = no mites, 9 = numerous mites)” value (from here on “sum … (0 = no mites, 9 = numerous mites)”) was 9.0.

For `O=C(OCc1ccccc1)c1ccccc1` [5.0% Benzyl benzoate, Benzyl benzoate], the “sum … (0 = no mites, 9 = numerous mites)” value was 9.0.

`CC(O)CO` (stereo not shown) [5.0% Propylene glycol, Propylene glycol] was tested, and the “sum … (0 = no mites, 9 = numerous mites)” value was 9.0.

`Oc1ccccc1-c1ccccc1` [0.1% o-Phenylphenol, o-Phenylphenol] was tested, and the “sum … (0 = no mites, 9 = numerous mites)” value was 9.0.

From patent publication US20020169147A1, “Compositions for controlling pests” (priority 2001, published 2002)
